Key:
[1] = test system: H22 cells; assay: Antitumor effect in H22 mouse hepatocellular carcinoma subcutaneous xenograft model; type: in vivo, BALB/c mice; details: oral, 2 weeks
[2] = test system: T cells; assay: Proportion of T cells in tumor and spleen of H22 xenograft mice (flow cytometry); type: in vivo, BALB/c mice
Procedure: Once all tumors were dissected, nail-sized tumor pieces were transferred to 1.5 mL Eppendorf tubes and minced with scissors. Transfer the minced tumor tissue suspension to a 15 mL centrifuge tube containing 3-5 mL of digestive enzymes (Collagenase IV 1 mg/mL, Hyaluronidase 1 mg/mL, DNase 120 U/mL). Incubate at 37° C. on a shaking incubator at 200 rpm for 1 hour. After digestion, pass the mixture through a 200-mesh sieve to obtain the tumor cell suspension. Centrifuge the resulting tumor suspension at 1600 rpm for 5 min, aspirate the supernatant, resuspend cells in 1 mL of 1×PBS per tube. Transfer the cell suspension to a 1.5 mL Eppendorf tube, centrifuge at 1600 rpm for 5 min, remove the supernatant, resuspend cells in 100 μL of 1×PBS per tube, add 1 μL of dead/live dye to each tube, mix thoroughly, and incubate at room temperature in the dark for 15 min. […] Position the spleen on a 200-mesh cell strainer. Gently press the spleen using a 10 mL syringe needle. […] Transfer the splenocyte suspension into a 15 mL centrifuge tube. Centrifuge at 1600 rpm for 5 min to collect cells. Wash once with 1×PBS. Add 3 mL red blood cell lysis buffer (diluted with ddH2O) to each tube and incubate for 5 min. After lysis, add 10 mL 1×PBS to each tube to terminate lysis. Centrifuge at 1600 rpm for 5 min. Add 1 mL 1×PBS to each 15 mL centrifuge tube, transfer to 1.5 mL EP tubes, and centrifuge at 1600 rpm for 5 min. Add 1×PBS to each tube containing stained tumor cells and lysed spleen cells for one wash, centrifuge at 1600 rpm for 5 min, and remove the supernatant. Resuspend tumor cells and spleen cells separately in 100 μL 1×PBS. Add 1 μL FcX™ antibody to each tube and incubate at room temperature in the dark for 10 min. After incubation, sequentially add 1 μL each of CD45, CD3, and CD8 antibodies to each tube. Incubate at 4° C. in the dark for 30 min. After staining, wash once with 1 mL PBS. Centrifuge at 1600 rpm for 5 min. Discard the supernatant. Resuspend cells in 300 μL 1×PBS. Filter the cell suspension into a flow cytometry tube and proceed to instrument analysis.

[3] = Water solubility testing of compounds (HPLC); details: deionized water, 37 °C
[4] = test system: 4T1 cells; assay: Antitumor effect in 4T1 mouse mammary carcinoma xenograft model; type: in vivo, BALB/c mice; details: oral, 3 weeks
Procedure: 4T1 cells were cultured and expanded in vitro. […] A 100 μL aliquot of this suspension was injected subcutaneously into the left forelimb axilla of female BALB/c mice. […] Daily oral administration was performed for 3 weeks. During the treatment period, mouse body weight and tumor diameter were measured daily. At the end of the experiment, mice were euthanized by cervical dislocation, and tumors were removed for weighing. Tumor volume (TV) was calculated using the formula: TV=½×a×b^2, where a represents the longest diameter of the tumor and b represents the shortest diameter.

[5] = test system: MDSCs; assay: Proportion of MDSCs in tumor and spleen of H22 xenograft mice (flow cytometry); type: in vivo, BALB/c mice
Procedure: Once all tumors were dissected, nail-sized tumor pieces were transferred to 1.5 mL Eppendorf tubes and minced with scissors. Transfer the minced tumor tissue suspension to a 15 mL centrifuge tube containing 3-5 mL of digestive enzymes (Collagenase IV 1 mg/mL, Hyaluronidase 1 mg/mL, DNase 120 U/mL). Incubate at 200 rpm and 37° C. for 1 hour. After digestion, pass the mixture through a 200-mesh sieve to obtain the tumor cell suspension. Centrifuge the resulting tumor suspension at 1600 rpm for 5 min, aspirate the supernatant, resuspend cells in 1 mL of 1×PBS per tube. Transfer the cell suspension to a 1.5 mL Eppendorf tube, centrifuge at 1600 rpm for 5 min, remove the supernatant, resuspend cells in 100 μL of 1×PBS per tube, add 1 μL of dead/live dye to each tube, mix thoroughly, and incubate at room temperature in the dark for 15 min. […] Position the spleen on a 200-mesh cell strainer. Gently press the spleen using a 10 mL syringe needle. […] Transfer the washed splenocyte suspension into a 15 mL centrifuge tube. Centrifuge at 1600 rpm for 5 min to collect cells. Wash once with 1×PBS. Add 3 mL red blood cell lysis buffer (diluted with ddH2O) to each tube and incubate for 5 min. After lysis, add 10 mL 1×PBS to each tube to terminate lysis. Centrifuge at 1600 rpm for 5 min. Add 1 mL 1×PBS to each 15 mL centrifuge tube, transfer to 1.5 mL EP tubes, and centrifuge at 1600 rpm for 5 min. Add 1 mL 1×PBS to each tube containing stained tumor cells and lysed spleen cells for one wash, centrifuge at 1600 rpm for 5 min, and remove the supernatant. Resuspend tumor cells and spleen cells separately in 100 μL 1×PBS. Add 1 μL FcX™ antibody to each tube and incubate at room temperature in the dark for 10 min. After incubation, sequentially add 1 μL each of CD45, CD11b, Gr1 antibodies. Incubate at 4° C. in the dark for 30 min. After incubation, wash once with 1×PBS, discard the supernatant, resuspend cells in 300 μL 1×PBS, filter the membrane into a flow cytometry tube, and proceed to instrument analysis.

[6] = test system: Hepa1-6 cells; assay: Antitumor effect in Hepa1-6 mouse hepatocellular carcinoma subcutaneous xenograft model; type: in vivo, C57BL/6 mice; details: 40 μmol/kg/d oral, 2 weeks
[7] = test system: T cells / MDSCs; assay: Promotion of T cell proliferation in a co-culture model of MDSCs and T cells; type: cell-based, mouse; details: 1 μM, MDSCs treated 12 hours, co-culture of MDSCs and T cells, compared to the control group
Outline: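 Bone-marrow MDSCs, after compound treatment, were co-cultured 48 h at 1:1 with CFDA-SE-labelled (10 μM solution), activated splenic T cells. Proliferation of CD3+ T cells was read by flow cytometry.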

[8] = 40 μmol/kg/day, oral, 2 weeks, spleen, flow cytometry
[9] = 40 μmol/kg/day, oral, 2 weeks, tumor, flow cytometry
[10] = compared with solvent control, result in words

## C=C1C(=O)O[C@H]2[C@H]1CCC(C)=C1CC[C@@](C)(OC(=O)NCCN3CCOCC3)[C@@H]12 [Compound 99]
[1]; 40 μmol/kg/day, H22 xenograft
  Tumor Suppression Rate (%): 25.18%
  Tumor weight: 6.40 ± 1.59 g
[1]; result in words
  tumor-inhibiting effect, H22: tumor-inhibiting effects
[2]; [8]
  Spleen T cells (%): 31.71 ± 2.95 %
[2]; [9]
  Tumor T cells (%): 22.81 ± 5.33 %
[2]; [10]
  proportion of T cells in tumor tissues and spleens: significantly increased
[3]
  Water-solubility: 220.8 mg/mL
[4]; 40 μmol/kg/day, 4T1
  Tumor inhibition rate (%): 20.94%
  Tumor weight: 1.43 ± 0.19 g
[4]; result in words
  antitumor effect, 4T1: no significant antitumor effects
[5]; [8]
  Spleen MDSCs (%): 30.90 ± 10.21 %
[5]; [9]
  Tumor-associated MDSCs (%): 34.85 ± 7.99 %
[5]; [10]
  proportion of MDSCs in tumor tissues and spleens: significantly reduced
[6]
  Tumor Inhibition Rate: 80.05%
[6]; solvent 0.92 ± 1.41
  Tumor weight: 0.18 ± 0.40 g
[7]
  T-cell proliferation rate (%): + (T-cell proliferation rate within the 0-20% range compared to the control group)
